This note sets out measurements from the supplement of paper PMC4862054.

Settings in all cases: incubation time: 72 h
One experiment deals with CAL-51. Put plainly: normalised viability (% of control), CellTiter-Blue; higher = more viable cells (about 100 = DMSO control). The procedure: (§1)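 DSRT, CellTiter-Blue viability, 72 h incubation. Signal is normalised to DMSO and benzethonium chloride controls. Value is the normalised response at dose 9.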
A general note: Alamar Blue is a resazurin reagent that responds to reducing activity.

The next experiment relates to HDQ-P1. The description is as above. The procedure:
as §1

Another experiment deals with DU-4475. The description is as above. The procedure:
as §1

In experiment [1] the test system is CAL-85-1. The experiment is described as above. The procedure:
as §1

Experiment [2] has as its system CAL-148. The experiment is described as above. The procedure: as §1
For the next experiment, the system named is MDA-MB-453. The description is as above. The procedure: as §1
The test system of experiment [3] is CAL-85-1. Put plainly: drug sensitivity score (DSS), CellTox Green (DSS (AUC-based score)); higher = stronger drug effect (viability inhibition or cytotoxicity); extreme values may be limits of the assay. Summed up: (§2)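 The drug sensitivity score reflects the area under a fitted dose-response curve. To obtain it, breast cancer cells in 20 µl suspension were seeded into 384-well plates containing compound at 5 concentrations, 10-fold apart over a compound-specific 10,000-fold range, and incubated 72 h. CellTox Green fluorescence (485/520 nm) was read first and CellTiter-Glo luminescence second, after 10 min at room temperature. Each plate was normalised to 0.1 % DMSO and a positive kill control.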

Experiment [4] has as its system CAL-148. The experiment is described as above. Summed up:
as §2

A further experiment deals with BT-474. The description is as above. Summed up:
as §2

For another experiment, the system named is HCC1599. The description is as above. Summed up:
as §2

Values joined by “and” are separate entries in the source; they are usually repeats but may differ in a detail not shown here. Equal values may be shown once.

For the molecule `Cn1cc(C2=Nc3cc(NC(=O)C(N)C4CCCCC4)cc4c3C2=CNNC4=O)cn1` (stereo unspecified) (10000 nM), the normalised viability came out at 30% in the experiment on CAL-51; 35.2% with HDQ-P1; 41.9% with DU-4475; 48.9% in the experiment on CAL-85-1 [1]; 28.1% with CAL-148 [2]; 16.3% in the experiment on MDA-MB-453.
Consider `COc1cc2c(cc1O)CC[C@@H]1[C@@H]2CC[C@]2(C)[C@@H](O)CC[C@@H]12` [2-methoxyestradiol] (10000 nM), for which the normalised viability in the experiment with CAL-51 was determined as 20.6%; in the experiment on HDQ-P1, 47.3%; with DU-4475, 28.7%; with CAL-85-1 [1], 57.5%; with CAL-148 [2], 58.1%; with MDA-MB-453, 36.6%.
In the case of `Cc1sc2c(c1C)C(c1ccc(Cl)cc1)=N[C@@H](CC(=O)OC(C)(C)C)c1nnc(C)n1-2` [(+)JQ1] (10000 nM), the normalised viability in the experiment on CAL-51 stood at 68.3%; in the experiment on HDQ-P1 it was 108%; with DU-4475, 1.08%; in the experiment on CAL-85-1 [1], 44.4%; in the experiment with CAL-148 [2], 27.6%; in the experiment with MDA-MB-453 it was 18.3%.
Consider `Oc1ncnc2[nH]ncc12` [Allopurinol] (10000 nM), for which the normalised viability was 92.5% in the experiment with CAL-51; 99.2% in the experiment with HDQ-P1; 115% in the experiment on DU-4475; 109% in the experiment on CAL-85-1 [1]; 118% in the experiment with CAL-148 [2]; 108% with MDA-MB-453.
For the molecule `O=C1CN2Cc3c(ccc(Cl)c3Cl)N=C2N1` [Anagrelide] (10000 nM), the normalised viability with CAL-51 is 83.8%; in the experiment with HDQ-P1, 118%; with DU-4475, 108%; in the experiment with CAL-85-1 [1] it was 89.8%; in the experiment with CAL-148 [2] it was 115%; with MDA-MB-453, 90.9%.
Turning to `Nc1ncn([C@@H]2O[C@H](CO)[C@@H](O)[C@H]2O)c(=O)n1` [Azacitidine] (10000 nM), the normalised viability in the experiment on CAL-51 worked out at 102%; in the experiment on HDQ-P1, 68.4%; in the experiment on DU-4475 it was 77.7%; in the experiment on CAL-85-1 [1] it was 102%; in the experiment with CAL-148 [2] it was 82.8%; in the experiment on MDA-MB-453 it was 82%.
For the molecule `O=NN(CCCl)C(=O)NCCCl` [Carmustine] (10000 nM), the normalised viability in the experiment on CAL-51 was 98.2%; in the experiment with HDQ-P1, 114%; with DU-4475, 105%; in the experiment on CAL-85-1 [1], 95.6%; with CAL-148 [2] it was 109%; in the experiment on MDA-MB-453, 115%.
As to `CC1=C2C[C@H]3[C@@H](CC=C4C[C@@H](O)CC[C@@]43C)[C@@H]2CC[C@]12O[C@@H]1C[C@H](C)CN[C@H]1[C@H]2C` [Cyclopamine] (10000 nM), the normalised viability with CAL-51 is 102%; in the experiment on HDQ-P1 it was 148%; in the experiment with DU-4475, 107%; with CAL-85-1 [1], 94.8%; in the experiment with CAL-148 [2], 116%; in the experiment with MDA-MB-453, 119%.
`CC(=O)O[C@@]12CO[C@@H]1C[C@H](O)[C@@]1(C)C(=O)[C@H](O)C3=C(C)[C@@H](OC(=O)[C@H](O)[C@@H](NC(=O)OC(C)(C)C)c4ccccc4)C[C@@](O)([C@@H](OC(=O)c4ccccc4)[C@H]21)C3(C)C` [Docetaxel] (1000 nM): the normalised viability was 16.2% and 12.2% in the experiment on CAL-51; 51.3% and 42.4% in the experiment with HDQ-P1; 11.7% and 10.5% in the experiment on DU-4475; 32.1% and 32.3% in the experiment with CAL-85-1 [1]; 23.1% and 21.2% with CAL-148 [2]; 23.1% and 24.4% in the experiment with MDA-MB-453.
Take `C[C@]1(O)C[C@@H](c2nc(-c3ccc4ccc(-c5ccccc5)nc4c3)c3c(N)nccn32)C1` [Linsitinib]: the drug sensitivity score with CAL-85-1 [3], with CAL-148 [4], in the experiment on BT-474 and with HCC1599 was 0 in each case.
For `CC1(C)CNc2cc(NC(=O)c3cccnc3NCc3ccncc3)ccc21` [Motesanib], the drug sensitivity score in the experiment on CAL-85-1 [3], in the experiment on CAL-148 [4], in the experiment with BT-474 and in the experiment on HCC1599 was 0 throughout.
For the molecule `CC1(C)CNc2cc(NC(=O)c3cccnc3NCc3ccncc3)ccc21` [Motesanib] (10000 nM), the normalised viability in the experiment with CAL-51 amounted to 97.2%; in the experiment with HDQ-P1 it was 92.2%; in the experiment on DU-4475 it was 88.6%; with CAL-85-1 [1], 78.2%; in the experiment with CAL-148 [2], 91.8%; in the experiment on MDA-MB-453, 69.4%.
Regarding `Cc1ccc([N+](=O)[O-])cc1S(=O)(=O)N(C)/N=C/c1cnc2ccc(Br)cn12` [PIK-75], the drug sensitivity score is 25.2 in the experiment on CAL-85-1 [3], 0 with CAL-148 [4], 20.3 in the experiment with BT-474 and 7.69 with HCC1599.
Turning to `CC[C@@H]1C(=O)OC[C@@H]1Cc1cncn1C` [Pilocarpine], the drug sensitivity score in the experiment on CAL-85-1 [3], with CAL-148 [4], in the experiment with BT-474 and in the experiment on HCC1599 was 0 in each case.
For the molecule `CC[C@@H]1C(=O)OC[C@@H]1Cc1cncn1C` [Pilocarpine] (40000 nM), the normalised viability was determined as 84.5% with CAL-51; 135% in the experiment with HDQ-P1; 68.7% with DU-4475; 64.4% in the experiment on CAL-85-1 [1]; 73.2% in the experiment with CAL-148 [2]; 43.7% with MDA-MB-453.
With `COc1cc(F)c(F)c(Nc2ccc(I)cc2F)c1NS(=O)(=O)C1(C[C@H](O)CO)CC1` [Refametinib], the drug sensitivity score was 12.3 with CAL-85-1 [3], 0 in the experiment with CAL-148 [4], 0 in the experiment with BT-474 and 0 in the experiment on HCC1599.
Regarding `CC(C)(C)c1cnc(CSc2cnc(NC(=O)C3CCNCC3)s2)o1` [SNS-032], the drug sensitivity score in the experiment on CAL-85-1 [3] turned out to be 20.9; in the experiment on CAL-148 [4] it was 0; in the experiment with BT-474 it was 0; in the experiment with HCC1599, 0.
Regarding `CC(C)(C)c1cnc(CSc2cnc(NC(=O)C3CCNCC3)s2)o1` [SNS-032] (10000 nM), the normalised viability in the experiment with CAL-51 was 4.67%; in the experiment with HDQ-P1 it was 12.7%; with DU-4475, -0.36%; with CAL-85-1 [1], 2.06%; with CAL-148 [2], 21.8%; in the experiment with MDA-MB-453, 18.6%.
With `Cn1cnc2c(F)c(Nc3ccc(Br)cc3Cl)c(C(=O)NOCCO)cc21` [Selumetinib], the drug sensitivity score in the experiment on CAL-85-1 [3], in the experiment with CAL-148 [4], with BT-474 and in the experiment on HCC1599 was 0 throughout.
As to `Cn1cnc2c(F)c(Nc3ccc(Br)cc3Cl)c(C(=O)NOCCO)cc21` [Selumetinib] (10000 nM), the normalised viability with CAL-51 worked out at 80.3%; in the experiment with HDQ-P1, 65.7%; in the experiment with DU-4475, 0.33%; in the experiment with CAL-85-1 [1] it was 49.6%; with CAL-148 [2], 89.9%; in the experiment with MDA-MB-453, 75.8%.
Turning to `Nc1nc2[nH]cnc2c(=S)[nH]1` [Thioguanine], the drug sensitivity score with CAL-85-1 [3], in the experiment on CAL-148 [4], in the experiment with BT-474 and in the experiment with HCC1599 was 0 in each case.
For the molecule `Nc1nc2[nH]cnc2c(=S)[nH]1` [Thioguanine] (10000 nM), the normalised viability was found to be 54.2% in the experiment on CAL-51; 58.5% in the experiment with HDQ-P1; 73.8% with DU-4475; 61.8% with CAL-85-1 [1]; 42% with CAL-148 [2]; 73.1% in the experiment with MDA-MB-453.
